US9440914B2, “Method for treating glioblastomas and other tumors” (THE FEINSTEIN INSTITUTE FOR MEDICAL RESEARCH, priority 2013, dated 2016)

Columns and labels:
microglia = assay: glioblastoma cell-stimulated microglia invasion (transwell); assay type: cell-based, murine; details: GL261 in bottom well, microglia in BME, 48 h; read-out: IC50 for inhibition of GL261-stimulated microglia invasion
Method: To measure the invasion of microglia toward glioblastoma cells in vitro, a variant of the glioblastoma cell invasion assay was used. First, 15×10^4 G1261 cells were plated in MSFM medium overnight and subsequently were placed in serum free medium. Subsequently, 5×10^4 microglia cells were embedded in 50 μL, of 10 mg/mL BME with or without 200 nM semapimod, placed in a 8 μm transwell (previously coated with 1 μg/mL fibronectin on the bottom side of the 8 μm filter to maintain adhesion of the cells that invaded through the filter) and allowed to polymerize for 30 min at 37° C. The transwell chambers were then placed above the previously plated GL261. After 48 h of incubation, the chambers were fixed in 3.7% formaldehyde in PBS.
The cells were stained with 0.2% crystal violet in 2% ethanol. The remaining BME was carefully removed and the inserts were allowed to dry. Cells attached to the bottom of the filter were imaged as for the invasion assay and the total number of invaded microglia was determined.
Semapimod inhibits glioblastoma-induced microglia invasion in vitro: Microglia extensively infiltrate glial tumors (5-7). […] This stimulatory effect is abolished by semapimod, with an IC50 of approximately 60 nM.

SK-NEP1 human ES cells = assay: metastatic Ewing's Sarcoma mouse model (SK-NEP1 implanted into kidney); assay type: in vivo, athymic mice
Method: FIG. 8A-8B. CNI-1493 decreases primary tumor size and metastatic burden in a metastatic Ewing's Sarcoma mouse model. 10^6 SK-ENP1 cells were implanted into the kidneys of nude mice and intraperitoneal treatment with CNI-1493 (5 mg/kg/day) or vehicle was initiated one week later. After six weeks of treatment, mice were sacrificed and assessed for primary and metastatic tumor burden. […] Metastatic tumor burden was evaluated with hematoxylin and eosin stained tissue sections by microscopy and calculating surface area per tissue section per mouse using ImageJ software (B).
In vivo, human ES cells (SK-NEP1) were surgically implanted into the left kidney of athymic mice. Mice were treated for 7 weeks with CNI-1493 or vehicle. Lung parenchyma was assessed for metastases utilizing both H&E and immunohistochemistry for the ES-specific CD99 and endothelial-specific CD31 markers. In vitro, primary macrophages isolated from human blood were polarized to M1 or M2 phenotypes by exposure to GM-CSF or M-CSF and activated with IFN-γ and LPS or IL-4. Cells were co-cultured with polarized macrophages and underwent proliferation and invasion assays in the presence or absence of CNI-1493.

[1] = system: GL261 cells with microglia; assay: concentration dependence on microglia-stimulated invasion of glioma cells (24-well transwell); assay type: cell-based; details: GL261 3×10^5, microglia 1.5×10^5, 48 h
Method: FIG. 11. […] GL261 cells (3×10^5) and microglia (1.5×10^5) were embedded in 50 μl of basement membrane extract in the presence of the indicated concentrations of semapimod (SMP) and CP1213, layered in a 24-well transwell and incubated for 48 h. The number of invading GL261 cells was determined. Data shown represent the average+/−SD of between 2 and 5 independent experiments, each performed in duplicate.
The concentration dependence of the inhibitory effect of semapimod or CP1213 was investigated on microglia-stimulated invasion of glioma cells. GL261 cells (3×10^5) and microglia (1.5×10^5) were embedded in 50 μl of basement membrane extract in the presence of the indicated concentrations of semapimod (SMP) and CP1213, layered in a 24-well transwell and incubated for 48 h. The number of invading GL261 cells was determined. Data are shown in FIG. 11 and represent the average+/−SD of between 2 and 5 independent experiments, each performed in duplicate. The data support a method of treating a glioma, by inhibiting microglia-stimulated invasion processes with guanylhydrazones.

## C/C(=N\NC(=N)N)c1cc(NC(=O)CCCCCCCCC(=O)Nc2cc(/C(C)=N/NC(=N)N)cc(/C(C)=N/NC(=N)N)c2)cc(/C(C)=N/NC(=N)N)c1 [semapimod]
microglia
  IC50: ~60 nM
SK-NEP1 human ES cells; intraperitoneal 5 mg/kg/day
  primary tumor size (effect in words): significantly reduce
SK-NEP1 human ES cells; intraperitoneal 5 mg/kg/day, p=0.055
  incidence of metastatic disease: 21%
SK-NEP1 human ES cells; lung tissue, CD99/CD31
  lung metastases by immunohistochemistry: micrometastases confined to the vasculature
SK-NEP1 human ES cells; treated 7 weeks, versus vehicle, p<0.05
  overall metastatic tumor burden: significantly decreased
SK-NEP1 human ES cells; treated 7 weeks, control 7.0±5.2 g, p=0.54, not affected
  primary tumor size: 5.7 ± 3.3 g
[1]
  effect on microglia-stimulated invasion of GL261 glioma cells (concentration dependence): inhibitory effects
